Reference: patent US12612441B2, “Polypeptide and therapeutic uses thereof” (Vitalixir (Beijing) Co., Ltd, priority 2019, dated 2026)
Entries after “also recorded” stand apart in the source; their conditions may differ. Where no end group is shown, it is not given here. [ ]: non-standard residue; d: D form. Aib = CC(C)(N)C(=O)O

Assays:
db/db mice [1] = assay: Blood glucose lowering in db/db mice (Example 8); assay type: in vivo; conditions: db/db male mice, 30 nmol/kg subcutaneous single dose, blood glucose 0-10 hours, AUC, vs PBS control; FIG. 2
Experimental: The feeding conditions of db/db mice were the same as described in Example 7. The db/db male mice (8 weeks old) were given one week to acclimate to the environmental conditions of the test facility. Baseline blood glucose and body weight were recorded for three days before the experiment (−3 day to −1 day). The mice were randomly grouped based on their three-day blood glucose and body weight, with 6 mice in each group. Mice were injected subcutaneously with PBS (5 ml/kg, control group) or the peptide compounds 31, 35, 38, 44 and 49 (30 nmol/kg) respectively at 10:00 in the morning. Blood was collected at 0 hour before drug administration, and 1, 2, 4, 6, 8, and 10 hours after administration, and blood glucose was measured using a OneTouch glucose meter (Johnson & Johnson) and test strips. Blood glucose curves were plotted with time as the abscissa and the blood glucose value at different time point as the ordinate, and the areas under the curve (AUC) were calculated.

DIO obese mice = DIO obese mice 14-day body composition study (Example 14); assay type: in vivo, C57BL/6 mice; conditions: 1.5 nmole per animal s.c. once a day for 14 days; for lean mass: EchoMRI day 0 vs day 15, FIG. 13; for fat mass: EchoMRI day 0 vs day 15, vs PBS control, FIG. 13
Experimental: The DIO obese mice experiment was conducted by Shanghai WuXi AppTec New Drug Development Co., Ltd. The animal feeding was the same as described in Example 13. The animals were adapted to grasping and subcutaneous injection for 1 week at 40 weeks of age. The body weight and food intake were measured for 3 consecutive days before the experiment, and the fasting blood glucose of the animals was measured 1 day before the experiment. The animals with abnormal blood glucose were removed, and the remaining animals were grouped according to the random blood glucose and body weight of the animals (using body weight as the main reference indicator), with 6 animals per group and an average weight of 47 grams. During the experiment, each group of the animals was injected subcutaneously with PBS, or 1.5 nmole of compound 35 or compound 40 per animal once a day, and the dosing period was 14 days. An EchoMRI body composition analyzer was used to measure the body fat content of the animals before and after the experiment.

db/db mice [2] = assay: Blood glucose lowering in db/db mice (Example 7); assay type: in vivo; conditions: db/db male mice, 30 nmol/kg subcutaneous single dose, blood glucose 0-10 hours, AUC, vs PBS control; FIG. 1
Experimental: db/db mice were housed in animal feeding rooms with strictly controlled environmental conditions. The temperature in the feeding room was maintained at 20-24° C. and the humidity was maintained at 40-70%. The temperature and humidity of the feeding room were monitored in real time by a temperature and humidity meter, and the temperature and humidity were recorded twice a day (once in the morning and once in the afternoon). The lighting in the animal feeding room was controlled by an electronic timing light-on system. The lights were turned on for 12 hours and turned off for 12 hours every day (on at 7:00 in the morning and off at 19:00 in the afternoon). During the experiment, the mice were individually housed in each cage, and toys were provided to the mice in each cage. During the experiment mice had free access to water. The db/db male mice (6 weeks old) were given one week to acclimate to the environmental conditions of the test facility. Baseline blood glucose and body weight were recorded for three days before the test (−3 day to −1 day). The mice were randomly grouped based on three-day blood glucose and body weight, with 6 mice in each group. The mice were injected subcutaneously with PBS (5 ml/kg, control group) or the peptide compounds 1, 2, 8, 16, 18, 19, 24, and 36 (30 nmol/kg) respectively at 10:00 am. Blood was collected at 0 hour before drug administration, and 1, 2, 4, 6, 8 and 10 hours after administration, and blood glucose was measured using a OneTouch glucose meter (Johnson & Johnson) and test strips. Blood glucose curves were plotted with time as the abscissa and the blood glucose value at different time point as the ordinate, the areas under the curve (AUC) were calculated, and the hypoglycemic effects and duration of time of the peptide compounds were compared.

Substance	blood glucose (db/db mice [1])	lean mass (DIO obese mice)	fat mass (DIO obese mice)	blood glucose (db/db mice [2])
Y(aib)EGTFTSDLSI(aib)LEKEAVKLFIEWLLAGGPSSGAPPPK-NH2 (YXEGTFTSDLSIXLEKEAVKLFIEWLLAGGPSSGAPPPK; Aib; C-terminal amide; …ON (2)..(2) X=aminoisobutyric aicd; …ON (13)..(13) X=aminoisobutyric aicd; …ON (39)..(39) AMIDATION, C-termianl amidation) [Compound 49]	significantly reduced the blood glucose			
Y(aib)EGTFTSDLSI(aib)LEKEAVRLFIEWLLAGGPSSGAPPPC-NH2 (YXEGTFTSDLSIXLEKEAVRLFIEWLLAGGPSSGAPPPC; Aib; C-terminal amide; MOD_RES (2)..(2) X=aminoisobutyric aicd; MOD_RES (13)..(13) X=aminoisobutyric aicd; MOD_RES (39)..(39) AMIDATION, C-termianl amidation) [Compound 38]	significantly reduced the blood glucose			
Y(aib)EGTFTSDLSI(aib)LEKEAVRLFIEWLLAGGPSSGAPPPK-NH2 (YXEGTFTSDLSIXLEKEAVRLFIEWLLAGGPSSGAPPPK; Aib; C-terminal amide; MOD_RES (2)..(2) X=aminoisobutyric aicd; MOD_RES (13)..(13) X=aminoisobutyric aicd; MOD_RES (39)..(39) AMIDATION, C-termianl amidation) [Compound 40]		basically unchanged	effectively reduced fat mass; also recorded: decreased markedly	
Y(aib)EGTFTSDLSIALEKEAVKLFIEWLLAGGPSSGAPPPK-NH2 (Y[Aib]EGTFTSDLSIALEKEAVKLFIEWLLAGGPSSGAPPPK-NH2; N-terminus assumed; SMILES CC[C@H](C)[C@H](NC(=O)[C@H](CO)NC(=O)[C@H](CC(C)C)NC(=O)[C@H](CC(=O)O)NC(=O)[C@H](CO)NC(=O)[C@@H](NC(=O)[C@H](Cc1ccccc1)NC(=O)[C@@H](NC(=O)CNC(=O)[C@H](CCC(=O)O)NC(=O)C(C)(C)NC(=O)[C@@H](N)Cc1ccc(O)cc1)[C@@H](C)O)[C@@H](C)O)C(=O)N[C@@H](C)C(=O)N[C@@H](CC(C)C)C(=O)N[C@@H](CCC(=O)O)C(=O)N[C@@H](CCCCN)C(=O)N[C@@H](CCC(=O)O)C(=O)N[C@@H](C)C(=O)N[C@H](C(=O)N[C@@H](CCCCN)C(=O)N[C@@H](CC(C)C)C(=O)N[C@@H](Cc1ccccc1)C(=O)N[C@H](C(=O)N[C@@H](CCC(=O)O)C(=O)N[C@@H](Cc1c[nH]c2ccccc12)C(=O)N[C@@H](CC(C)C)C(=O)N[C@@H](CC(C)C)C(=O)N[C@@H](C)C(=O)NCC(=O)NCC(=O)N1CCC[C@H]1C(=O)N[C@@H](CO)C(=O)N[C@@H](CO)C(=O)NCC(=O)N[C@@H](C)C(=O)N1CCC[C@H]1C(=O)N1CCC[C@H]1C(=O)N1CCC[C@H]1C(=O)N[C@@H](CCCCN)C(N)=O)[C@@H](C)CC)C(C)C) [Compound 44]	significantly reduced the blood glucose			
Y(aib)EGTFTSDLSIALEKEAVRLFIEWLLAGGPSSGAPPPK-NH2 (Y[Aib]EGTFTSDLSIALEKEAVRLFIEWLLAGGPSSGAPPPK-NH2; N-terminus assumed; SMILES CC[C@H](C)[C@H](NC(=O)[C@H](CO)NC(=O)[C@H](CC(C)C)NC(=O)[C@H](CC(=O)O)NC(=O)[C@H](CO)NC(=O)[C@@H](NC(=O)[C@H](Cc1ccccc1)NC(=O)[C@@H](NC(=O)CNC(=O)[C@H](CCC(=O)O)NC(=O)C(C)(C)NC(=O)[C@@H](N)Cc1ccc(O)cc1)[C@@H](C)O)[C@@H](C)O)C(=O)N[C@@H](C)C(=O)N[C@@H](CC(C)C)C(=O)N[C@@H](CCC(=O)O)C(=O)N[C@@H](CCCCN)C(=O)N[C@@H](CCC(=O)O)C(=O)N[C@@H](C)C(=O)N[C@H](C(=O)N[C@@H](CCCNC(=N)N)C(=O)N[C@@H](CC(C)C)C(=O)N[C@@H](Cc1ccccc1)C(=O)N[C@H](C(=O)N[C@@H](CCC(=O)O)C(=O)N[C@@H](Cc1c[nH]c2ccccc12)C(=O)N[C@@H](CC(C)C)C(=O)N[C@@H](CC(C)C)C(=O)N[C@@H](C)C(=O)NCC(=O)NCC(=O)N1CCC[C@H]1C(=O)N[C@@H](CO)C(=O)N[C@@H](CO)C(=O)NCC(=O)N[C@@H](C)C(=O)N1CCC[C@H]1C(=O)N1CCC[C@H]1C(=O)N1CCC[C@H]1C(=O)N[C@@H](CCCCN)C(N)=O)[C@@H](C)CC)C(C)C) [Compound 35]	significantly reduced the blood glucose	basically unchanged	effectively reduced fat mass; also recorded: decreased markedly	
Y(aib)EGTFTSDLSIALEKEAVRLFIEWLLAGGPSSGAPPPS-NH2 (Y[Aib]EGTFTSDLSIALEKEAVRLFIEWLLAGGPSSGAPPPS-NH2; N-terminus assumed; SMILES CC[C@H](C)[C@H](NC(=O)[C@H](CO)NC(=O)[C@H](CC(C)C)NC(=O)[C@H](CC(=O)O)NC(=O)[C@H](CO)NC(=O)[C@@H](NC(=O)[C@H](Cc1ccccc1)NC(=O)[C@@H](NC(=O)CNC(=O)[C@H](CCC(=O)O)NC(=O)C(C)(C)NC(=O)[C@@H](N)Cc1ccc(O)cc1)[C@@H](C)O)[C@@H](C)O)C(=O)N[C@@H](C)C(=O)N[C@@H](CC(C)C)C(=O)N[C@@H](CCC(=O)O)C(=O)N[C@@H](CCCCN)C(=O)N[C@@H](CCC(=O)O)C(=O)N[C@@H](C)C(=O)N[C@H](C(=O)N[C@@H](CCCNC(=N)N)C(=O)N[C@@H](CC(C)C)C(=O)N[C@@H](Cc1ccccc1)C(=O)N[C@H](C(=O)N[C@@H](CCC(=O)O)C(=O)N[C@@H](Cc1c[nH]c2ccccc12)C(=O)N[C@@H](CC(C)C)C(=O)N[C@@H](CC(C)C)C(=O)N[C@@H](C)C(=O)NCC(=O)NCC(=O)N1CCC[C@H]1C(=O)N[C@@H](CO)C(=O)N[C@@H](CO)C(=O)NCC(=O)N[C@@H](C)C(=O)N1CCC[C@H]1C(=O)N1CCC[C@H]1C(=O)N1CCC[C@H]1C(=O)N[C@@H](CO)C(N)=O)[C@@H](C)CC)C(C)C) [Compound 31]	significantly reduced the blood glucose			
Y(aib)EGTFTSDYSIYLEKEAVRLFVNWLIAGGPSSGAPPPS-NH2 (Y[Aib]EGTFTSDYSIYLEKEAVRLFVNWLIAGGPSSGAPPPS-NH2; N-terminus assumed; SMILES CC[C@H](C)[C@H](NC(=O)[C@H](CC(C)C)NC(=O)[C@H](Cc1c[nH]c2ccccc12)NC(=O)[C@H](CC(N)=O)NC(=O)[C@@H](NC(=O)[C@H](Cc1ccccc1)NC(=O)[C@H](CC(C)C)NC(=O)[C@H](CCCNC(=N)N)NC(=O)[C@@H](NC(=O)[C@H](C)NC(=O)[C@H](CCC(=O)O)NC(=O)[C@H](CCCCN)NC(=O)[C@H](CCC(=O)O)NC(=O)[C@H](CC(C)C)NC(=O)[C@H](Cc1ccc(O)cc1)NC(=O)[C@@H](NC(=O)[C@H](CO)NC(=O)[C@H](Cc1ccc(O)cc1)NC(=O)[C@H](CC(=O)O)NC(=O)[C@H](CO)NC(=O)[C@@H](NC(=O)[C@H](Cc1ccccc1)NC(=O)[C@@H](NC(=O)CNC(=O)[C@H](CCC(=O)O)NC(=O)C(C)(C)NC(=O)[C@@H](N)Cc1ccc(O)cc1)[C@@H](C)O)[C@@H](C)O)[C@@H](C)CC)C(C)C)C(C)C)C(=O)N[C@@H](C)C(=O)NCC(=O)NCC(=O)N1CCC[C@H]1C(=O)N[C@@H](CO)C(=O)N[C@@H](CO)C(=O)NCC(=O)N[C@@H](C)C(=O)N1CCC[C@H]1C(=O)N1CCC[C@H]1C(=O)N1CCC[C@H]1C(=O)N[C@@H](CO)C(N)=O) [Compound 8]				significantly reduce blood glucose
